# Laboratory results reported in patent US8278293B2, “Diazo bicyclic Smac mimetics and the uses thereof” (The Regents of the University of Michigan, priority 2007, dated 2012).
# Read-outs that look alike come from different tables or passages of the source.
# What was measured:
# [1] = tested on: MDA-MB-231 human breast cancer cell line; test: Cell growth inhibition, WST-8 assay, MDA-MB-231; assay type: cell-based; details: for cellular activity in MDA-MB-231 compared with SM-122: relative to SM-122
# Procedure: (§1) The effect of the compounds of the present invention on the growth of various cancer cell lines was tested. Cells were seeded in 96-well flat bottom cell culture plates at a density of 3000 cells/well with a tested compound and incubated at 37° C. in an atmosphere of 95% air and 5% CO2 for 4 days. […] Dojindo Molecular Technologies, Inc., Gaithersburg, Md.). […] The absorbance of the samples was measured at 450 nm using a ULTRA Tecan Reader (Molecular Device). […] The ability of SM-406 to inhibit cell growth as a single agent was tested in the MDA-MB-231 breast cancer cell line, SK-OV-3 and OVCAR-4 ovarian cancer cell lines and SK-MeI-2 melanoma cancer cell line. Cells were treated for 4 days. Cell growth was determined using a WST-based assay.
# [2] = tested on: SK-OV-3 ovarian cancer cell line; test: Cell growth inhibition, WST-8 assay, SK-OV-3; assay type: cell-based; details: for IC50: 4 days, WST-8, read-out: SK-OV-3 IC50; for cellular activity in SK-OV-3 compared with SM-122: relative to SM-122
# Procedure: as §1
# XIAP BIR3 = XIAP BIR3 (Homo sapiens, UniProt P98170); test: Fluorescence polarization (FP) based competitive binding assay to XIAP BIR3; parameters: human XIAP (residues 241-356) fused to His-tag; His-tag; details: for IC50: FP binding, XIAP BIR3 30 nM, SM5F 5 nM; for binding affinity to XIAP BIR3 compared with SM-122: relative to carbocyclic analog SM-122
# Chain of XIAP BIR3 (P98170 241-356): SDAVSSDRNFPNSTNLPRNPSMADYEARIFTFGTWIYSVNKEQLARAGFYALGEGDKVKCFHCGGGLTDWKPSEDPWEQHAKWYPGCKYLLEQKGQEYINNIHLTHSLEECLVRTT
# [3] = Homo sapiens, MDA-MB-231, 96 h, 4 days, WST-8, read-out: MDA-MB-231 IC50
# [4] = Homo sapiens, MDA-MB-231, 96 h, read-out: MDA-MB-231 IC50 (μM)
"IC50 [1, 3] [µM]","IC50 ([2]; Homo sapiens, SK-OV-3, 96 h) [nM]",IC50 (XIAP BIR3) [nM],SMILES,further results
< 100,< 100000,< 10000,CN[C@@H](C)C(=O)N[C@H]1CN(C(=O)CC(C)C)CC[C@H]2CC[C@@H](CN(Cc3ccccc3)C(C)=O)N2C1=O [SM-230],
< 1,< 1000,< 1000,CN[C@@H](C)C(=O)N[C@H]1CN(C(=O)Cc2ccc(F)cc2)CC[C@H]2CC[C@@H](C(=O)NCc3ccc(F)cc3)N2C1=O [SM-402],
< 1,< 1000,< 1000,CN[C@@H](C)C(=O)N[C@H]1CN(C(=O)CCc2ccccc2)CC[C@H]2CC[C@@H](C(=O)NC(c3ccccc3)c3ccccc3)N2C1=O [SM-408],
< 1,< 1000,< 1000,CN[C@@H](C)C(=O)N[C@H]1CN(C(=O)CC(C)C)CC[C@H]2CC[C@@H](C(=O)N[C@@H]3CCCc4ccccc43)N2C1=O [SM-427],
< 1,< 1000,< 1000,CCCC(=O)N1CC[C@H]2CC[C@@H](C(=O)NC(c3ccccc3)c3ccccc3)N2C(=O)[C@@H](NC(=O)[C@H](C)NC)C1 [SM-409],
< 1,< 1000,< 1000,CN[C@@H](C)C(=O)N[C@H]1CN(C(=O)Cc2ccccc2)CC[C@H]2CC[C@@H](C(=O)NCc3ccc(F)cc3)N2C1=O [SM-401],
< 1,< 1000,< 1000,CN[C@@H](C)C(=O)N[C@H]1CN(C(=O)CCc2ccc(F)cc2)CC[C@H]2CC[C@@H](C(=O)NC(c3ccc(F)cc3)c3ccc(F)cc3)N2C1=O [SM-404],
,,,CN[C@@H](C)C(=O)N[C@H]1CN(C(C)=O)CC[C@H]2CCC(C(=O)NC(c3ccccc3)c3ccccc3)N2C1=O (stereo partly drawn) [SM-330],"IC50 [1, 4]: < 1 µM"
< 100,< 100000,< 1000,CN[C@@H](C)C(=O)N[C@H]1CN(C(=O)CCn2ccnc2)CC[C@H]2CC[C@@H](C(=O)NC(c3ccccc3)c3ccccc3)N2C1=O [SM-414],
< 1,< 1000,< 1000,CN[C@@H](C)C(=O)N[C@H]1CN(C(=O)CC(C)C)CC[C@H]2CC[C@@H](C(=O)NC(c3ccc(F)cc3)c3ccc(F)cc3)N2C1=O [SM-210],
< 1,,< 1000,CN[C@@H](C)C(=O)N[C@H]1CN(C(=O)Cc2ccc(F)cc2F)CC[C@H]2CCC(C(=O)NC(c3ccccc3)c3ccccc3)N2C1=O (stereo partly drawn) [SM-356],
< 10,< 10000,< 1000,CN[C@@H](C)C(=O)N[C@H]1CN(C(=O)CC(C)C)CC[C@H]2CC[C@@H](C(=O)NCc3cccc(-c4ccccc4)c3)N2C1=O [SM-429],
< 1,< 1000,< 1000,CN[C@@H](C)C(=O)N[C@H]1CN(C(=O)CCCC(C)C)CC[C@H]2CC[C@@H](C(=O)NC(c3ccccc3)c3ccccc3)N2C1=O [SM-422],
,,,CN[C@@H](C)C(=O)N[C@H]1CN(Cc2ccccc2)CC[C@H]2CC[C@@H](C(=O)NC(c3ccccc3)c3ccccc3)N2C1=O [YP-246P],"IC50 [1, 4]: > 1 µM; cellular activity in MDA-MB-231 compared with SM-122 [1]: less than that of SM-122; cellular activity in SK-OV-3 compared with SM-122 [2]: less than that of SM-122; binding affinity to XIAP BIR3 compared with SM-122 (XIAP BIR3): less than that of SM-122"
,,,CN[C@@H](C)C(=O)N[C@H]1CN(C)CC[C@H]2CC[C@@H](C(=O)NC(c3ccccc3)c3ccccc3)N2C1=O [YP-245P3],"IC50 [1, 4]: > 1 µM; cellular activity in MDA-MB-231 compared with SM-122 [1]: less than that of SM-122; cellular activity in SK-OV-3 compared with SM-122 [2]: less than that of SM-122; binding affinity to XIAP BIR3 compared with SM-122 (XIAP BIR3): less than that of SM-122"
< 1,< 1000,< 100,CN[C@@H](C)C(=O)N[C@H]1CN(C(=O)Cc2ccc(F)cc2)CC[C@H]2CC[C@@H](C(=O)NC3CCCc4ccccc43)N2C1=O (stereo partly drawn) [SM-377],
< 10,< 10000,< 1000,CCCN[C@@H](C)C(=O)N[C@H]1CN(C(=O)CC(C)C)CC[C@H]2CC[C@@H](C(=O)NC(c3ccccc3)c3ccccc3)N2C1=O [SM-211],
< 10,< 10000,< 1000,CN[C@@H](C)C(=O)N[C@H]1CN(C(=O)C(C)C)CC[C@H]2CC[C@@H](C(=O)NC(c3ccc(F)cc3)c3ccc(F)cc3)N2C1=O [SM-209],
< 100,< 100000,< 1000,CN[C@@H](C)C(=O)N[C@H]1CN(C(=O)C[C@@H](O)C(=O)O)CC[C@H]2CC[C@@H](C(=O)NC(c3ccccc3)c3ccccc3)N2C1=O [SM-413],
< 1,< 1000,< 1000,CN[C@@H](C)C(=O)N[C@H]1CN(C(=O)CC(C)C)CC[C@H]2CC[C@@H](C(=O)NC3CCc4ccccc43)N2C1=O (stereo partly drawn) [SM-431],

"IC50 [1, 3] [µM]","IC50 ([2]; Homo sapiens, SK-OV-3, 96 h) [nM]",IC50 (XIAP BIR3) [nM],SMILES,further results
< 10,< 10000,< 1000,CN[C@@H](C)C(=O)N[C@H]1CN(C(=O)[C@H]2CC[C@H](O)C2)CC[C@H]2CC[C@@H](C(=O)NC(c3ccccc3)c3ccccc3)N2C1=O [SM-418],
< 1,< 1000,< 1000,CN[C@@H](C)C(=O)N[C@H]1CN(C(=O)CC(C)(C)C)CC[C@H]2CC[C@@H](C(=O)NC(c3ccccc3)c3ccccc3)N2C1=O [SM-415],
< 1,< 1000,< 100,CN[C@@H](C)C(=O)N[C@H]1CN(C(=O)Cc2ccccc2)CC[C@H]2CC[C@@H](C(=O)NC3CCCc4ccccc43)N2C1=O (stereo partly drawn) [SM-376],
< 10,< 10000,< 1000,CN[C@@H](C)C(=O)N[C@H]1CN(C(=O)CC(C)C)CC[C@H]2CC[C@@H](C(=O)N[C@H]3CCc4ccccc43)N2C1=O [SM-425],
< 10,< 10000,< 10000,CN[C@@H](C)C(=O)N[C@H]1CN(C(=O)CC(C)C)CC[C@H]2CC[C@@H](C(=O)NCc3ccc(-c4ccccc4)cc3)N2C1=O [SM-434],
< 10,< 10000,< 1000,CN[C@@H](C)C(=O)N[C@H]1CN(C(=O)CC(C)C)CC[C@H]2CC[C@@H](C(=O)NCc3cccc4ccccc34)N2C1=O [SM-430],
< 1,< 1000,< 1000,CN[C@@H](C)C(=O)N[C@H]1CN(C(=O)CCc2ccc(F)cc2)CC[C@H]2CC[C@@H](C(=O)NC(c3ccccc3)c3ccccc3)N2C1=O [SM-407],
< 10,< 10000,< 1000,CN[C@@H](C)C(=O)N[C@H]1CN(C(=O)CC(C)C)CC[C@H]2CC[C@@H](C(=O)NCC(c3ccccc3)c3ccccc3)N2C1=O [SM-432],
< 1,< 1000,< 1000,CN[C@@H](C)C(=O)N[C@H]1CN(C(=O)Cc2ccccc2)CC[C@H]2CC[C@@H](C(=O)NC(c3ccc(F)cc3)c3ccc(F)cc3)N2C1=O [SM-403],
< 10,< 10000,< 1000,CN[C@@H](C)C(=O)N[C@H]1CN(C(=O)C[C@@H]2CCOC2)CC[C@H]2CC[C@@H](C(=O)NC(c3ccccc3)c3ccccc3)N2C1=O [SM-419],
< 10,< 10000,< 1000,CN[C@@H](C)C(=O)N[C@H]1CN(C(=O)C[C@H]2CC[C@H](O)C2)CC[C@H]2CC[C@@H](C(=O)NC(c3ccccc3)c3ccccc3)N2C1=O [SM-416],
< 1,< 1000,< 1000,CN[C@@H](C)C(=O)N[C@H]1CN(C(=O)CCCc2ccccc2)CC[C@H]2CC[C@@H](C(=O)NC(c3ccccc3)c3ccccc3)N2C1=O [SM-421],
< 10,< 10000,< 1000,CC(C)CC(=O)N1CC[C@H]2CC[C@@H](C(=O)NC(c3ccccc3)c3ccccc3)N2C(=O)[C@@H](NC(=O)[C@H](C)NCCO)C1 [SM-213],
,,< 1000,CN[C@@H](C)C(=O)N[C@H]1CN(C(=O)Cc2ccccc2)CCC[C@H]2CC[C@@H](C(=O)NC(c3ccccc3)c3ccccc3)N2C1=O [SM-207],"IC50 ([1]; 4 days, WST-8, listed as SH-207, read-out: MDA-MB-231 IC50): < 1 µM; IC50 ([1]; 4 days, WST-8, read-out: MDA-MB-231 IC50): < 10 µM; IC50 ([2]; listed as SH-207): < 1000 nM; IC50 [2]: < 10000 nM"
< 10,< 10000,< 10000,CN[C@@H](C)C(=O)N[C@H]1CN(C(=O)CC(C)C)CC[C@H]2CC[C@@H](C(=O)NCc3ccc(C(F)(F)F)cc3)N2C1=O [SM-426],
< 10,< 10000,< 1000,CC[C@H](NC)C(=O)N[C@H]1CN(C(=O)CC(C)C)CC[C@H]2CC[C@@H](C(=O)NC(c3ccccc3)c3ccccc3)N2C1=O [SM-212],
< 10,< 10000,,CN[C@@H](C)C(=O)N[C@H]1CNCC[C@H]2CC[C@@H](C(=O)NC(c3ccccc3)c3ccccc3)N2C1=O [SM-227],
< 1,< 1000,< 1000,CN[C@@H](C)C(=O)N[C@H]1CN(C(=O)CCC(C)C)CC[C@H]2CC[C@@H](C(=O)NC(c3ccccc3)c3ccccc3)N2C1=O [SM-420],
< 10,< 10000,< 1000,CN[C@@H](C)C(=O)N[C@H]1CN(C(=O)CC(C)C)CC[C@H]2CC[C@@H](C(=O)NCc3ccccc3-c3ccccc3)N2C1=O [SM-433],
